One compound from paper PMC6874530, “Structural analysis identifies an escape route from the adverse lipogenic effects of liver X receptor ligands” (Communications Biology, 2019) can be followed below.

The target in test [1] is T1, LXRβ LBD (Homo sapiens, UniProt P55055).
T1 sequence (P55055 215-460 limits assumed): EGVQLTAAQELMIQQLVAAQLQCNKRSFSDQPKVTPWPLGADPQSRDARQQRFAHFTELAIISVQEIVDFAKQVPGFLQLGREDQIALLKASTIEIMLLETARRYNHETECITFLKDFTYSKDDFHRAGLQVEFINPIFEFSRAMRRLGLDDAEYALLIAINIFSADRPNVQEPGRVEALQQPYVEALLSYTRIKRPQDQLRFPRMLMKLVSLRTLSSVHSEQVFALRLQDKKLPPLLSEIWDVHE
Put plainly: biochemical.
Excerpt: The compounds were run in triplicate (binding assay) or in quadruplicate (transactivation assay). Standard deviations are indicated for individual experiments run more than once.

Test [2] deals with T2, LXRα (Homo sapiens, UniProt Q13133).
T2 construct: expression vectors pSG5-Gal4-LXRα LBD or pSG5-Gal4-LXRβ LBD; expressed in transfected cells; host or cells: U2OS osteosarcoma cells
T2 sequence (Q13133 209-447 limits assumed): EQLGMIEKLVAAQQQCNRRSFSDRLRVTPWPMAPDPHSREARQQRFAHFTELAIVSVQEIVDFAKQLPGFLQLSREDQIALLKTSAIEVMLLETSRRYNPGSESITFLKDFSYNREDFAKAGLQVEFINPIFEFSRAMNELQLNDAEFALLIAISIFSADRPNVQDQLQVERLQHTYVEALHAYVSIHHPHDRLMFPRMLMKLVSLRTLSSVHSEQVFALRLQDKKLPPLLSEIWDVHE
Put plainly: Gal4 one hybrid reporter gene (transactivation) assay in U2OS cells, LXRα. Format: cell-based. To be noted: value (SD, n). As to the method: (§1) Transactivation assays were performed in U2OS osteosarcoma cells (ATCC, USA). […] Ligands were added at ten different concentrations 2 h post transfection and the luciferase activity was measured after 40 h.
(Reporter assays use an easily measured gene product as a stand-in for the process of interest.)

Test [3] has as its system Abca1 mRNA in intestine. Put plainly: intestinal Abca1 mRNA induction in C57BL/6 mice (Emax model). Format: in vivo, mouse. The conditions noted are these: for ED50: Mus musculus. As to the method: All procedures involving animals were conducted in accordance with accepted standards of good animal practice and approved by the respective local animal ethics committees (Gothenburg region Local Ethics Review Committee on Animal experiments and University of Virginia Animal Care and Use Committee). Male C57BL/6JOlaHsd mice were retrieved from Harlan Laboratories (Horst, The Netherlands) around 7 weeks of age. In the studies with BMS-852907, male 8-week C57BL/6J mice (Jackson Laboratories) were used. Mice were given ad libitum access to water and standard rodent chow during the studies.
Solid compounds were solubilized in PEG400/Ethanol/Solutol/Water solution (36.3/9.1/4.6/50%). Compounds were given daily by oral gavage, 5 ml kg^−1, at doses ranging from 0.1 to 100 μmol kg^−1 of body weight for 4 days. Animals were terminated 3 h after the last dose.
At termination, the whole-blood volume was drawn from isoflurane-anesthetized mice via an incision in the carotid artery into EDTA blood tubes (S-Monovette®, EDTA KE/1.3 mL, Sarstedt, Nümbrecht, Germany or BD Microtainers®, Benton, Dickinson and Company, Franklin Lakes, New Jersey, USA). Blood samples were placed on ice and centrifuged within an hour (15 min, 2500 × g, 4 °C or 5 min, 16000 × g, 4 °C). The plasma was then dispensed in separate tubes and kept at −80 °C for later analysis of compound concentration and TG levels. For the analysis of intestinal Abca1 transcript levels, a 3–5-mm long segment of the duodenum was excised and cleared from any gut contents. Tissues were instantly snap frozen in liquid nitrogen and stored at −80 °C.
Snap-frozen intestinal tissues were quickly disrupted in QIAzol® (Qiagen, Hilden, Germany) or PureZOL™ (Bio-Rad Laboratories, Hercules, California, USA) by using a bead tissue homogenizer. Lysates were mixed with chloroform and centrifuged at 6000 × g for 15 min at 4 °C. Total RNA was purified from the upper aqueous phase on the ABI PRISM™ 6100 Nucleic Acid PrepStation (Applied Biosystems, Foster City, USA) or by using the RNeasy kit® (QIAGEN Sciences Inc., Germantown, Maryland, USA) including on-column DNase treatment by using the respective manufacturer’s protocol and reagents. Concentration of total RNA was determined on a NanoDrop™ ND-100 Spectrophotometer (Saveen Werner, Lögstrup, Sweden). The RNA templates were transferred to cDNA by reverse transcription by using the High-Capacity cDNA Reverse Transcription Kit (Applied Biosystems, Foster City, USA) according to the manufacturer’s protocol. Mouse ATP-binding cassette subfamily A member 1 (Abca1) was analyzed by using the forward primer 5′-[…]-3′, reverse primer 5′-[…]-3′, and the dual-labeled probe 5′-6FAM-[…]-TAMRA-3′. Mouse ribosomal protein large P0 (Rplp0, 36b4) was analyzed by using the forward primer 5′-[…]-3′, reverse primer 5′-[…]-3′, and the FAM-labeled probe 5′-[…]-TAMRA-3′. In the study with BMS-852907, RT-qPCR reactions were carried out in separate triplicate wells for Abca1 and Rplp0, respectively, by using 20 ng of cDNA template, 385 nM of the above-mentioned primers, and iQ™ SYBR Green Supermix (Bio-Rad, Hercules, California, USA) on a Bio-Rad MyiQ instrument (Bio-Rad, Hercules, California, USA). In the other studies, 400 nM Abca1 forward and reverse primers, 200 nM Abca1 probe, 200 nM Rplp0 forward and reverse primers, and 100 nM Rplp0 probe were mixed with 15 ng of cDNA template and TaqMan™ Gene Expression Master Mix (Applied Biosystems, Foster City, USA). The RT-qPCR reactions were performed on a 7500 Real-time PCR system (Applied Biosystems, Foster City, USA). Cycle threshold values (Ct) were retrieved from the instrument software. Relative changes in mRNA expression were calculated by using the comparative cycle method (2^−ΔΔCt). […]

Test [4] deals with T3, LXRβ (Homo sapiens, UniProt P55055).
T3 construct: expression vectors pSG5-Gal4-LXRα LBD or pSG5-Gal4-LXRβ LBD; expressed in transfected cells; host or cells: U2OS osteosarcoma cells
T3 sequence (P55055 222-460 limits assumed): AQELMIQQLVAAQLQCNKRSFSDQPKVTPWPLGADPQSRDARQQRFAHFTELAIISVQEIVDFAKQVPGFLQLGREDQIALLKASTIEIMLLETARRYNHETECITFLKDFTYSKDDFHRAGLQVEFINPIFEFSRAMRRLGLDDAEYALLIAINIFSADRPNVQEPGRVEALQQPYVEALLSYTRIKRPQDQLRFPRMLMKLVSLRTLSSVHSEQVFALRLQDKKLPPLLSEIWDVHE
In words: Gal4 one hybrid reporter gene (transactivation) assay in U2OS cells, LXRβ. Format: cell-based. The protocol:
as §1

In general, Ki refers to a dissociation constant, usually derived from enzyme kinetics or from competition with a known ligand.

Read-outs that look alike come from different tables or passages of the source.

As for `Fc1ccc(-c2c3cccc(C(F)(F)F)c3nn2Cc2ccc(F)cc2Cl)cc1` [LXR-623, reference compound], in test [1], the affinity corresponds to a Ki of 0.0955 µM. Besides, the EC50 in test [2] (U2OS cells, Gal4-LXRα LBD, read-out: LXRα transactivation pEC50 (converted)) is 2.57 µM; in test [4] it was 1.86 µM. Also, the Emax in test [2] (U2OS, 40 h, maximal activation compared with a reference full agonist, read-out: LXRα transactivation Agonist efficacy, %) was 102%; in test [4] (U2OS, 40 h, read-out: LXRβ transactivation Agonist efficacy, %) it was 94.3%. For the same compound, the “class of intestinal Abca1 induction” value in test [3] is reported as “low ABCA1 inducers”. The ED50 in test [3] (po, read-out: Abca1 mRNA induction in intestine Attributed class) was above 11.3 µmol/kg; in test [3] (oral gavage daily for 4 days, C57BL/6 mice, (% RSE), read-out: Abca1 mRNA induction in intestine ED50), 31.5 µmol/kg.
